Assay results: patent publication US7829560B2, “1,4-disubstituted naphthalenes as inhibitors of P38 MAP kinase” (Arqule, Inc., priority 2004, dated 2010)

Legend:
[1] = molecular target: T1, p38α (Homo sapiens, UniProt Q16539); experiment: p38 MAP Kinase assay: inhibition of ATF2 phosphorylation, ELISA; format: biochemical; conditions: ATF2 phosphorylation; read-out: [ENZ] P38 ALPHA, IC50, ELISA
T1 construct: p38 MAP Kinases are recombinant human full-length proteins with an amino-terminal GST fusion; GST (N); purchased Upstate Biotechnology Inc; host or cells: E. coli
T1 sequence (Q16539 whole entry, the tested form may be a part): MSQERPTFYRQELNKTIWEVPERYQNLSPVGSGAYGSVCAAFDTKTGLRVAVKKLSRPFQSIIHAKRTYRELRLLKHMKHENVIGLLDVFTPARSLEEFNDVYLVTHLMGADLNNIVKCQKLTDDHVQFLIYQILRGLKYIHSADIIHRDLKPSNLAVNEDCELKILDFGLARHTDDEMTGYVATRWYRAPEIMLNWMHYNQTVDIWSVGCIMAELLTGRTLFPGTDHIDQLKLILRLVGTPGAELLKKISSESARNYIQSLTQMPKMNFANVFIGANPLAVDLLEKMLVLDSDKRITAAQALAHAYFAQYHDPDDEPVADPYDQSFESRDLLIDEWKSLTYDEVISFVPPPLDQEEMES
Procedure, shortened: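 In vitro phosphorylation of ATF2 at Thr69 by recombinant human GST-p38 MAP kinase, read by anti-phospho-ATF2 ELISA at 450 nm. Enzyme and compound pre-incubated 15 min at RT, then 30 min reaction at 37 °C with 40 μM ATP and 1.25 μM ATF2; buffer with or without 1% HSA (Method II or I).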

[2] = test system: TNFα release from THP-1 cells; experiment: Inhibition of TNFα release from LPS-stimulated THP-1 cells, ELISA; format: cell-based; conditions: Homo sapiens, THP-1, THP-1 cells, read-out: [CELL] THP-1, IC50, TNF ALPHA, ELISA
Procedure, shortened: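 TNFα released into supernatant after 18 h of 10 μg/ml LPS stimulation was quantified by ELISA and IC50 taken as 50% reduction by non-linear regression. THP-1 cells (10^6/ml; medium with 10% FBS, serum-free or 1% HSA) saw compound for 30 min at 37 °C beforehand; final DMSO ≤0.5%.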

CN1CCCC1CCNc1nccc(Oc2ccc(NC(=O)c3cc(F)cc(N4CCCCC4)c3)c3ccccc23)n1 (stereo not drawn) [Compound B394, 3-Fluoro-N-{4-[(2-{[2-(1-methylpyrrolidin-2-yl)ethyl]amino}pyrimidin-4-yl)oxy]-1-naphthyl}-5-piperidin-1-ylbenzamide]
IC50 [1]: 0.7 nM | IC50 [2]: 10.8 nM | melting point: 112 to 114 °C

CCN1CCN(c2nccc(Oc3ccc(NC(=O)c4cc(F)cc(N5CCCCC5)c4)c4ccccc34)n2)CC1 [Compound B398, N-(4-{[2-(4-Ethylpiperazin-1-yl)pyrimidin-4-yl]oxy}-1-naphthyl)-3-fluoro-5-piperidin-1-ylbenzamide]
IC50 [1]: 7.9 nM | IC50 [2]: 241 nM | melting point: 86 to 87 °C
